Laboratory results: patent publication US4937232A, “Inhibition of protein kinase C by long-chain bases” (priority 1988, dated 1990)

How the values were obtained:
HL-60 cells = assay: [3-3H]sphinganine uptake and metabolism by HL-60 cells; assay type: in vitro ADME, human
Method: Approximately 1×10^6 HL-60 cells in 1 ml of medium were mixed with an equal volume of medium containing 2.5 μm [3-^3 H]sphinganine (equimolar with BSA). After varying time intervals, an aliquot of the cells was removed and counted and a portion was extracted as described below. The extracts were applied to Silica gel H plates and developed in CHCl3 :methanol: 2N NH4 OH (40:10:1, v/v/v), air dried, sprayed with Amplify (Amersham), and subjected to fluorography.

NADPH-oxidase = biological target: T1, NADPH-oxidase (Homo sapiens, UniProt P04839); assay: NADPH-oxidase activity in isolated neutrophil membranes; assay type: biochemical
T1 construct: endogenous in cells
Method: Superoxide production was also measured spectrophotometrically in isolated membranes (see below) by the method of Curnutte et al (N. Eng. J. Med. 293, 628-632) also using superoxide dismutase inhibitable reduction of cytochrome c. Assays utilized paired cuvettes with the reference cuvette containing 30 μg/ml superoxide dismutase. Both cuvettes also contained 65 mM potassium phosphate pH 7.0, 125 mM sucrose, 81 μM cytochrome c, and 0.1 mg of membrane protein. The reaction was initiated with 200 μM (final) NADPH in both cuvettes. The treatments are as described in Table I. All spectrophotometric measurements were carried out using a Cary […] spectrophotometer.
Neutrophil membranes activated for superoxide production were prepared as described previously (Hohn, J. Clin. Invest. 55, 707-713, 1975). Neutrophils (10^8) were suspended in PBS-glucose and incubated in a shaking waterbath at 37° C. Cells were activated by the addition of 10 μg PMA/ml and allowed to incubate 5 min. The reaction was stopped by adding an equal volume of ice-cold PBS. The cells were centrifuged at 400×g for 4 min at 4° C. and resuspended in PBS-glucose containing 120 μM FAD. The cells were lysed by homogenization with a teflon-glass homogenizer. The homgenate was centrifuged at 250×g for 10 min. to remove unlysed cells. […]

protein kinase C [1] = assay: [3H]PDBu binding to protein kinase C in mixed micelles; design: species or system rat; details: 16 and 20 mol % PS
Method: [^3 H]PDBu binding was performed as previously described (26).

[2] = tested on: protein kinase C-induced phosphorylation of the 40 KDa polypeptide; assay: 40K (40 kDa) protein phosphorylation in human platelets; assay type: cell-based
Method: They were then suspended in modified Tyrode's buffer to a concentration of 2.5×10^8 platelets/ml.
^32 Pi at 0.2 mCi/ml was added to the platelet suspension and labelling was allowed to proceed for 75 minutes at 37° C., after which the platelets were pelleted at 600×g for 10 minutes and resuspended in Tyrode's buffer to the same concentration. They were then aliquoted in Eppendorf microfuge tubes and preincubated at 37° C. for 5 minutes with the varying concentrations of sphingosine. Platelets were then stimulated with either 5 μM dioctanoylglycerol (added as an ethanol solution with the final concentration of ethanol 0.5%), 10 μM TPA, or 1 unit/ml thrombin. The reactions were stopped after 30 seconds by the addition of an equal volume of 2× sample buffer, and the samples were then boiled for 3 minutes. […] Gels were subsequently fixed in water/methanol/acetic acid (60:30:10), dried, and autoradiographed.

protein kinase C [3] = assay: Phorbol-dibutyrate binding to protein kinase C, mixed micellar assay (Table VI); details: Triton X-100 mixed micelles, 20 mol % phosphatidylserine
Method: TABLE VI: Inhibition of protein kinase C activity and phorbol-dibutyrate binding by lysosphingolipids. […] The remaining two columns show the observed effects of the lysosphingolipids of protein kinase C activity and phorbol diester binding in vitro and in human platelets. Lysogangliosides were prepared from their parental gangliosides by hydrolysis in methanolic KOH esentially as described by Neuenhofer et al. in Bioch. 24, 525, 1985. During this preparation, with approximately 90-95% conversion, the N-acetate of N-acetylneuraminic acid is partially hydrolyzed. Fatty acids were partitioned into heptane after acidification of the methanolic reaction mixture. Galactosylsphingosine, glucosylsphingosine, and lactosylsphingosine were prepared as previously described for galactosylsphingosine (Radin, Lipids 9, 358, 1974) Sphingosylphosphorylcholine was prepared by hydrolysis in HCl-butanol (Kaller, Biochemische Zeitschrift 334, 451, 1961). The purity of the lyso derivatives (greater than 90%) was checked by thin layer chromatography (TLC) on silica gel H plates developed in chloroform/methanol/2N NH4 OH (65/35/9) and visualized by ninhydrin reaction for N-lyso compounds, by α-naphthol/sulfuric acid for both gangliosides and lysogangliosides,and by a phospholipid spray for sphingosylphosphorylcholine. Lysosphingolipids were quantitated by reaction of the amine group with trinitrobenzenesulfonate. Gangliosides and lysosphingolipids were also quantitated by reaction with anthrone. The lysosphingolipids were then studied for their effect on protein kinase C activity. Protein kinase C was purified to near homogeneity by the method of Wolf et al. (J. Biol. Chem. 260, 15718, 1985), and activity was measured using a mixed micellar assay (described herein). Lysosphingolipids were added directly in aqueous solution, and allowed to equilibrate with the Triton X-100 (0.3% w/v) mixed micelles containing 6 mol % phosphatidylserine and 2 mol % dioleoylglycerol. […] Phorbol-dibutyrate binding was measured in a mixed micellar assay. Lysosphingolipids inhibited phorbol-dibutyrate binding to protein kinase C in the presence of Triton X-100 mixed micelles containing 20 mol % phosphatidylserine. […] The difference is related to the higher concentration of phosphatidylserine used in the binding assay, as both activity and binding show a high cooperative dependence on phosphatidylserine, which modulates the inhibition by lysosphingolipids. Phorbol-dibutyrate binding to human platelets and 40 kDa phosphorylation in platelets were carried out as described above. Lysosphingolipids inhibited phorbol dibutyrate binding to human platelets at concentrations in the 10-50 μM range. Inhibition of 40 kDa phosphorylation occurred over the same concentration range.

SMILES	time in which approximately half of the sphinganine was taken up from the medium by the cells (HL-60 cells; [3H]sphinganine, HL-60 cells, 37°) [h]	free [3H]sphinganine associated with the cells (HL-60 cells; day 2) [nmol]	free [3H]sphinganine associated with the cells (HL-60 cells; day 3) [nmol]	Cytochrome c Reduction (NADPH-oxidase; 18 μM sphinganine, membranes from PMA-pretreated cells) [nmols/min/mg/protein]	inhibition of NADPH-dependent superoxide generation in isolated membranes (NADPH-oxidase; concentrations which inhibited the cellular response)	inhibition of phorbol-ester binding to mixed micelles (protein kinase C [1])	inhibition of thrombin-induced 40K phosphorylation ([2]; 25 μM sphingosine)	inhibition of thrombin-induced 40K phosphorylation ([2]; concentrations as low as 10 μM)	inhibition of TPA and diC8-induced 40K phosphorylation ([2]; data not shown)	sphingosine required for complete inhibition (mol % sphingosine:phospholipids) ([2]; platelet 40K phosphorylation, similar to in vitro inhibition of protein kinase C)	Inhibition of [3H]PDBu Binding to Protein Kinase, (mol %) (protein kinase C [3])	IC50 (protein kinase C [3]; read-out: Inhibition of [3H]PDBu Binding to Protein Kinase) [µM]
CCCCCCCCCCCCCCC[C@@H](O)[C@@H](N)CO (relative stereo) [Sphinganine, erythro-dihydrosphingosine]	≤ 6	0.07	0.06	27	No inhibition							
CCCCCCCCCCCCC/C=C/[C@@H](O)[C@@H](N)CO [sphingosine]						inhibited	nearly complete inhibition	Partial inhibition	inhibited	3-5 mol %	9.3	400
